# Source: ChEMBL document CHEMBL5131481, “Topoisomerase IIα inhibitory and antiproliferative activity of dihydroxylated 2,6-diphenyl-4-fluorophenylpyridines: Design, synthesis, and structure-activity relationships” (Bioorg Med Chem Lett, 2022)
# pIC50: −log10 of the molar value. Counter-ions that a name gives are not always drawn.
# Columns and labels:
# HeLa = test: Antiproliferative activity against human HeLa cells assessed as inhibition of cell proliferation; format: functional, cell-based
# HCT-15 = test: Antiproliferative activity against human HCT-15 cells assessed as inhibition of cell proliferation; format: functional, cell-based
# DU-145 = test: Antiproliferative activity against human DU-145 cells assessed as inhibition of cell proliferation; format: functional, cell-based
# T47D = test: Antiproliferative activity against human T47D cells assessed as inhibition of cell proliferation; format: functional, cell-based
# [1] = molecular target: DNA topoisomerase 2-alpha (Homo sapiens) (UniProt P11388); test: Inhibition of topoisomerase 2alpha (unknown origin) assessed as relaxation of supercoiled plasmid pBR322 DNA at 100 uM relative to control
# Sequence of DNA topoisomerase 2-alpha (Homo sapiens) (P11388 whole entry): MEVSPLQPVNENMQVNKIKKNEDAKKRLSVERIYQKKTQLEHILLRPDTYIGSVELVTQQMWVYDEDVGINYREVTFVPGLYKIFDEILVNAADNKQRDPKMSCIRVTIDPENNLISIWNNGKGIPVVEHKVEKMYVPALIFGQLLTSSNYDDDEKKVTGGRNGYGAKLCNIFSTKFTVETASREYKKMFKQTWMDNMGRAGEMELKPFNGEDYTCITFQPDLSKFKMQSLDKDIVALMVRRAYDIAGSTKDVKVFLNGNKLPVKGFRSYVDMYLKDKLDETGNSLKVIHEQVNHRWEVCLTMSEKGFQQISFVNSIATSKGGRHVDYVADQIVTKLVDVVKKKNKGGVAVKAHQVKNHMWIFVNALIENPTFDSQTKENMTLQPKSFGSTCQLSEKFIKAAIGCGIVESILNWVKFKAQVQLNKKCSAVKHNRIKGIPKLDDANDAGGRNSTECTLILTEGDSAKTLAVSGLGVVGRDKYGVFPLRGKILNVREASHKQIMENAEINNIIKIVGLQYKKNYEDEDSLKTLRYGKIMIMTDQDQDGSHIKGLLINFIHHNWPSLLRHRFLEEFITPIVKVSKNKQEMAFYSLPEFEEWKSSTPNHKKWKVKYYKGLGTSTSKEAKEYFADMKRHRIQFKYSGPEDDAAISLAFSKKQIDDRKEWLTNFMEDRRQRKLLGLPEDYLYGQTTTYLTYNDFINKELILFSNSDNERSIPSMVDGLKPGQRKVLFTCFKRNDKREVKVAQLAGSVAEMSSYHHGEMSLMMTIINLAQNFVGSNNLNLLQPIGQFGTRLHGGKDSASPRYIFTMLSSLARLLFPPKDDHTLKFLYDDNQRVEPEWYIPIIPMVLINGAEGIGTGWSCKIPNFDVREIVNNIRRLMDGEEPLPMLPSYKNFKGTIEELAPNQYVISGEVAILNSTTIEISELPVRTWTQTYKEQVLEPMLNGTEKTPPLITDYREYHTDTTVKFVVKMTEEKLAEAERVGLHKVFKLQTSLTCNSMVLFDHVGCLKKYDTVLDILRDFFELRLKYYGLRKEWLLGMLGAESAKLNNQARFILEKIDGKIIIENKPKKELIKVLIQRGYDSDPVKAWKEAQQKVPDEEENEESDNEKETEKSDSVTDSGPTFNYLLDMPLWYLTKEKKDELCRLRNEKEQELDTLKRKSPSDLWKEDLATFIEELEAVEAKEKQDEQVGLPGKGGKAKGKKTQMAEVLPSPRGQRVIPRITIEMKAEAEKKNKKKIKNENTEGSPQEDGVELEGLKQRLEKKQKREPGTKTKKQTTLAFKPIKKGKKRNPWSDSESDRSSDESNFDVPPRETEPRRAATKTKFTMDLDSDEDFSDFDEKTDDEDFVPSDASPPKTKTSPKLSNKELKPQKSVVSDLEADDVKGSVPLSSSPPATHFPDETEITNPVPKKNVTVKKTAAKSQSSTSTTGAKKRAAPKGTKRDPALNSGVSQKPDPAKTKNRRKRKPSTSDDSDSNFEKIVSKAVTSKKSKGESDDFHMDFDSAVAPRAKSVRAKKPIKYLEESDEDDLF
SMILES,pIC50 (HeLa),pIC50 (HCT-15),pIC50 (DU-145),pIC50 (T47D),inhibition [1]
Oc1cccc(-c2cc(-c3ccccc3F)cc(-c3ccccc3O)n2)c1,4.51,5.07,4.45,4.62,1%
Oc1cccc(-c2cc(-c3cccc(OC(F)(F)F)c3)cc(-c3cccc(O)c3)n2)c1,< 4.30,< 4.30,< 4.30,5.17,5.7%
Oc1cccc(-c2cc(-c3ccccc3C(F)(F)F)cc(-c3cccc(O)c3)n2)c1,4.82,5.09,5.54,5.36,34%
Oc1ccccc1-c1cc(-c2ccccc2F)cc(-c2ccccc2O)n1,< 4.30,< 4.30,< 4.30,< 4.30,10.3%
Oc1ccccc1-c1cc(-c2ccc(C(F)(F)F)cc2)cc(-c2ccccc2O)n1,< 4.30,< 4.30,< 4.30,< 4.30,0%
Oc1ccc(-c2cc(-c3cccc(F)c3)cc(-c3ccccc3O)n2)cc1,< 4.30,< 4.30,< 4.30,< 4.30,16.3%
Oc1cccc(-c2cc(-c3cccc(F)c3)cc(-c3ccccc3O)n2)c1,< 4.30,< 4.30,< 4.30,< 4.30,8.8%
Oc1cccc(-c2cc(-c3ccc(OC(F)(F)F)cc3)cc(-c3cccc(O)c3)n2)c1,4.73,< 4.30,< 4.30,5.01,6%
Oc1ccc(-c2cc(-c3ccc(F)cc3)cc(-c3ccccc3O)n2)cc1,< 4.30,< 4.30,< 4.30,< 4.30,0%
Oc1cccc(-c2cc(-c3ccc(F)cc3)cc(-c3ccccc3O)n2)c1,< 4.30,< 4.30,< 4.30,< 4.30,1.3%
Oc1ccc(-c2cc(-c3cccc(F)c3)cc(-c3ccc(O)cc3)n2)cc1,< 4.30,< 4.30,5.03,< 4.30,0%
Oc1ccccc1-c1cc(-c2ccccc2C(F)(F)F)cc(-c2ccccc2O)n1,5.24,5.40,5.32,4.65,0%
Oc1cccc(-c2cc(-c3cccc(F)c3)cc(-c3cccc(O)c3)n2)c1,5.85,5.10,4.62,4.67,4.9%
Oc1cccc(-c2cc(-c3ccccc3OC(F)(F)F)cc(-c3ccccc3O)n2)c1,4.82,5.49,< 4.30,5.57,0%
Oc1cccc(-c2cc(-c3cccc(C(F)(F)F)c3)cc(-c3ccccc3O)n2)c1,4.71,5.19,4.89,5.20,0.6%
Oc1cccc(-c2cc(-c3ccc(OC(F)(F)F)cc3)cc(-c3ccccc3O)n2)c1,4.69,5.03,4.68,5.11,0%
Oc1cccc(-c2cc(-c3cccc(OC(F)(F)F)c3)cc(-c3ccccc3O)n2)c1,4.83,5.56,< 4.30,5.27,0%
Oc1ccc(-c2cc(-c3ccc(OC(F)(F)F)cc3)cc(-c3ccccc3O)n2)cc1,< 4.30,< 4.30,< 4.30,< 4.30,0%

SMILES,pIC50 (HeLa),pIC50 (HCT-15),pIC50 (DU-145),pIC50 (T47D),inhibition [1]
Oc1ccccc1-c1cc(-c2ccc(OC(F)(F)F)cc2)cc(-c2ccccc2O)n1,< 4.30,< 4.30,4.69,< 4.30,0%
Oc1ccc(-c2cc(-c3cccc(OC(F)(F)F)c3)cc(-c3ccc(O)cc3)n2)cc1,< 4.30,< 4.30,< 4.30,< 4.30,4.4%
Oc1ccc(-c2cc(-c3ccccc3C(F)(F)F)cc(-c3ccc(O)cc3)n2)cc1,< 4.30,< 4.30,< 4.30,< 4.30,0%
Oc1ccc(-c2cc(-c3cccc(C(F)(F)F)c3)cc(-c3cccc(O)c3)n2)cc1,4.79,5.02,4.96,5.58,28%
Oc1ccc(-c2cc(-c3ccc(OC(F)(F)F)cc3)cc(-c3cccc(O)c3)n2)cc1,4.56,5.86,4.74,4.72,4.4%
Oc1ccccc1-c1cc(-c2ccc(F)cc2)cc(-c2ccccc2O)n1,< 4.30,< 4.30,< 4.30,< 4.30,7.2%
Oc1ccc(-c2cc(-c3ccccc3C(F)(F)F)cc(-c3ccccc3O)n2)cc1,4.78,5.05,5.17,5.14,0%
Oc1ccc(-c2cc(-c3cccc(C(F)(F)F)c3)cc(-c3ccc(O)cc3)n2)cc1,< 4.30,< 4.30,< 4.30,< 4.30,0%
Oc1cccc(-c2cc(-c3ccccc3C(F)(F)F)cc(-c3ccccc3O)n2)c1,4.77,5.05,5.14,5.25,2.6%
Oc1cccc(-c2cc(-c3ccc(C(F)(F)F)cc3)cc(-c3ccccc3O)n2)c1,< 4.30,< 4.30,< 4.30,< 4.30,0.2%
Oc1ccccc1-c1cc(-c2cccc(C(F)(F)F)c2)cc(-c2ccccc2O)n1,< 4.30,< 4.30,< 4.30,< 4.30,1.2%
Oc1ccccc1-c1cc(-c2cccc(OC(F)(F)F)c2)cc(-c2ccccc2O)n1,< 4.30,< 4.30,5.13,< 4.30,14.8%
Oc1ccccc1-c1cc(-c2ccccc2OC(F)(F)F)cc(-c2ccccc2O)n1,5.01,5.34,5.23,5.76,12.5%
Oc1ccc(-c2cc(-c3ccc(C(F)(F)F)cc3)cc(-c3ccccc3O)n2)cc1,< 4.30,< 4.30,< 4.30,< 4.30,0.1%
Oc1ccc(-c2cc(-c3ccccc3F)cc(-c3ccccc3O)n2)cc1,< 4.30,< 4.30,< 4.30,< 4.30,0.2%
Oc1ccccc1-c1cc(-c2cccc(F)c2)cc(-c2ccccc2O)n1,< 4.30,< 4.30,< 4.30,< 4.30,0%
Oc1ccc(-c2cc(-c3cccc(OC(F)(F)F)c3)cc(-c3ccccc3O)n2)cc1,< 4.30,< 4.30,< 4.30,< 4.30,0%
COc1cccc2c1C(=O)c1c(O)c3c(c(O)c1C2=O)C[C@@](O)(C(=O)CO)C[C@@H]3O[C@H]1C[C@H](N)[C@H](O)[C@H](C)O1 [DOXORUBICIN HYDROCHLORIDE],5.30,5.89,5.23,5.34,
